US10576102B2, “KOC1-derived peptide and vaccine including same” (ONCOTHERAPY SCIENCE, INC., priority 2014, dated 2020)
Entries after “also recorded” stand apart in the source; their conditions may differ.

What was measured:
Type in all cases: cell-based, human
[1] = test system: peptide-pulsed C1R-A11; assay: In vitro CTL induction, IFN-gamma ELISPOT assay (HLA-A*1101); details: CTLs induced with peptide-pulsed DCs from HLA-A*1101-positive volunteers; day 21; vs peptide-pulsed C1R-A11, compared with unpulsed control
Experimental: (§1) C1R (C1R-A11) that stably expresses HLA-A*1101 was used as a stimulator cell. A cDNA encoding the open-reading frame of HLA-A*1101 was amplified by PCR and cloned into an expression vector. C1R cells were transfected with the expression vector, and then selected using G418 (Invitrogen) for two weeks. The G418-selected cells were seeded into wells containing G418-added culture medium in a 96-well plate, and further cultured for 30 days. The exogenous HLA-A*1101 expression in C1R cells was verified by flow cytometric analysis.
(§2) Monocyte-derived dendritic cells (DCs) were used as the antigen-presenting cell to induce a cytotoxic T lymphocyte (CTL) response against peptides presented on human leukocyte antigens (HLAs). As described in the other sections, DCs were generated in vitro (Nakahara S et al., Cancer Res 2003, 63(14): 4112-8). Specifically, peripheral-blood mononuclear cells isolated from healthy volunteers (HLA-A*1101-positive) with the Ficoll-Paque plus solution (Pharmacia) were separated by attaching to plastic tissue culture dishes (Becton Dickinson) and concentrated as a monocyte fraction. The monocyte-concentrated population was cultured in the presence of 1000 IU/ml granulocyte macrophage colony-stimulating factor (R&D System) and 1000 IU/ml interleukin(IL)-4 (R&D System) in an AIM-V medium (Invitrogen) containing 2% heat-inactivated autologous serum (AS). After seven days of culturing, the cytokine-induced DCs were pulsed with 20 micro-g/ml each of the synthesized peptides in an AIM-V medium at 37 degrees C. for three hours in the presence of 3 micro-g/ml beta 2-microglobulin. The generated cells appeared to express on their cell surface DC-associated molecules such as CD80, CD83, CD86 and HLA class II (data not shown). Next, these peptide-pulsed DCs were inactivated, by X-ray irradiation (20 Gy), and mixed in a 1:20 ratio with autologous CD8^+ T cells obtained by positive selection using the CD8 Positive Isolation Kit (Dynal). These culture products were seeded in a 48-well plate (Corning). Each well was made to contain 1.5×10^4 peptide-pulsed DCs, 3×10^5 CD8^+ T cells and 10 ng/ml IL-7 (R&D System) in 0.5 ml of the AIM-V/2% AS medium. Three days later, these culture products were added with a final concentration of 20 IU/ml IL-2 (CHIRON). On day 7 and day 14, T cells were further stimulated with peptide-pulsed autologous DCs. The DCs were prepared every time by the same method as above. On day 21, after the third peptide stimulation, CTLs were examined against the peptide-pulsed C1R-A11 by a human interferon (IFN)-gamma enzyme-linked immunospot (ELISPOT) assay (Tanaka H et al., Br J Cancer 2001, 84(1): 94-9; Umano Y et al., Br J Cancer 2001, 84(8): 1052-7; Uchida N et al., Clin Cancer Res 2004, 10(24): 8577-86; Suda T et al., Cancer Sci 2006, 97(5): 411-9; Watanabe T et al., Cancer Sci 2005, 96(8): 498-506).
(§3) Specifically, peptide-pulsed C1R-A11 (1×10^4 cells/well) was prepared as the stimulator cell. The induced CTLs, i.e., CTL lines and CTL clones, were used as the responder cell. The IFN-gamma ELISPOT assay and IFN-gamma ELISA were performed according to the manufacturer's manual.

[2] = test system: peptide-pulsed C1R-A11; assay: IFN-gamma ELISA of CTL lines and CTL clones (HLA-A*1101)
Experimental: CTLs were propagated in culture using methods similar to those disclosed by Riddell et al. (Walter E A et al., N Engl J Med 1995, 333(16): 1038-44; Riddell S R et al., Nat Med 1996, 2(2): 216-23). The CTLs were co-cultured in a total of 25 ml AIM-V medium containing 5% AS (AIM-V/5% AS) and 40 ng/ml anti-CD3 antibody with two types of Mitomycin C-treated human B lymphoblastoid cell lines at 5×10^6 cells/flask. One day after beginning of the culturing, 120 IU/ml IL-2 was added to the culture. On days 5, 8 and 11, a fresh AIM-V/5% AS medium containing 30 IU/ml IL-2 was added to the culture (Tanaka H et al., Br J Cancer 2001, 84(1): 94-9; Umano Y et al., Br J Cancer 2001, 84(8): 1052-7; Uchida N et al., Clin Cancer Res 2004, 10(24): 8577-86; Suda T et al., Cancer Sci 2006, 97(5): 411-9; Watanabe T et al., Cancer Sci 2005, 96(8): 498-506).
Dilution of CTLs was carried out to make 0.3, 1 and 3 cells/well in 96 round-bottomed microtiter plates (Nalge Nunc International). The CTLs were co-cultured with two types of Mitomycin C-treated human B lymphoblastoid cell lines at 1×10^4 cells/well in a total of 150 micro-1/well AIM-V/5% AS medium with 30 ng/ml anti-CD3 antibody and 125 IU/ml IL-2. Ten days later, IL-2 was added to the medium at 50 micro-1/well to reach a final concentration of 125 IU/ml. On day 14, the CTL activity was tested, and the CTL clones were propagated using the same method as described above (Uchida N et al., Clin Cancer Res 2004, 10(24): 8577-86; Suda T et al., Cancer Sci 2006, 97(5): 411-9; Watanabe T et al., Cancer Sci 2005, 96(8): 498-506).
as §3

[3] = test system: peptide-pulsed C1R-A03; assay: In vitro CTL induction, IFN-gamma ELISPOT assay (HLA-A*0301); details: CTLs induced with peptide-pulsed DCs from HLA-A*0301-positive volunteers; day 21; vs peptide-pulsed C1R-A03, compared with unpulsed control; listed as KOC1-A03-10-414
Experimental: as §1, with “(C1R-A03)” for “(C1R-A11)”, “HLA-A*0301” for “HLA-A*1101”
as §2, with “(HLA-A*0301-positive)” for “(HLA-A*1101-positive)”, “inactivated” for “inactivated,”, “On day 21, after the third peptide stimulation, CTLs were examined against the peptide-pulsed C1R-A11 by a human interferon (IFN)-gamma enzyme-linked immunospot (ELISPOT) assay (Tanaka H et al., Br J Cancer 2001, 84(1): 94-9; Umano Y et al., Br J Cancer 2001, 84(8): 1052-7; Uchida N et al., Clin Cancer Res 2004, 10(24): 8577-86; Suda T et al., Cancer Sci 2006, 97(5): 411-9; Watanabe T et al., Cancer Sci 2005, 96(8): 498-506).” left out

| Sequence | peptide-specific CTL activity (IFN-gamma production), ELISPOT [1] | IFN-gamma production of CTL clones, ELISA ([2]; CTL clones by limiting dilution, peptide-pulsed C1R-A11, listed as KOC1-A11-9-415) | IFN-gamma production of CTL lines, ELISA ([2]; CTL lines, target cells pulsed with the peptide vs not pulsed, C1R-A11) | peptide-specific CTL activity (IFN-gamma production), ELISPOT [3] |
| --- | --- | --- | --- | --- |
| LSVGAIIGK (a peptide derived from KOC1) [SEQ ID NO: 5] | potent IFN-gamma production | Potent IFN-gamma production | potent IFN-gamma production |  |
| ALSVGAIIGK (a peptide derived from KOC1) [SEQ ID NO: 28] | potent IFN-gamma production |  |  | no specific IFN-gamma production; also recorded: specific IFN-gamma production was not observed |
